The text below walks through data of PubChem BioAssay AID256 (DTP/NCI, 2004).

Each structure is given as a SMILES string. “And” between values parts separate entries of the source, which are not always exact repeats. Equal entries are not always repeated. Toxic doses and inconclusive results are not listed.

In the test the test system is CD2F1 mice, L1210 leukemia ip, survival T/C. Nature of the test: NCI In Vivo Anticancer Drug Screen. Data for tumor model L1210 Leukemia (intraperitoneal) in CD2F1 (CDF1) mice. As to conditions: endpoint: mean survival time, higher = longer survival. In short, it runs like this: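 Antitumor effect is scored in animals hosting a serially transplanted tumor. Values compare compound-dosed animals against vehicle-only controls as a simple quotient.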

Where [1] appears, read: dose: 12.5 mg/kg/injection, schedule: Q04DX003 (ip), vehicle: saline with Tween-80.
Where [2] appears, read: dose: 25.0 mg/kg/injection, schedule: Q04DX003 (ip), vehicle: saline with Tween-80.
Setting [3] is: dose: 50.0 mg/kg/injection, schedule: Q04DX003 (ip), vehicle: saline with Tween-80.
[4] abbreviates: dose: 100.0 mg/kg/injection, schedule: Q04DX003 (ip), vehicle: saline with Tween-80.
Setting [5] is: dose: 200.0 mg/kg/injection, schedule: Q04DX003 (ip), vehicle: saline with Tween-80.
The mark [6] stands for this setting: dose: 100.0 mg/kg/injection, schedule: Q01DX009 (ip), vehicle: saline with Tween-80.
Setting [7] is: dose: 200.0 mg/kg/injection, schedule: Q01DX009 (ip), vehicle: saline with Tween-80.
Setting [8] is: dose: 400.0 mg/kg/injection, schedule: Q01DX009 (ip), vehicle: saline with Tween-80.
[9] abbreviates: dose: 100.0 mg/kg/injection, schedule: Q01DX001 (ip), vehicle: saline with Tween-80.
Where [10] appears, read: dose: 200.0 mg/kg/injection, schedule: Q01DX001 (ip), vehicle: saline with Tween-80.
The mark [11] stands for this setting: dose: 400.0 mg/kg/injection, schedule: Q01DX001 (ip), vehicle: saline with Tween-80.
[12] abbreviates: dose: 100.0 mg/kg/injection, schedule: Q04DX003 (ip), vehicle: Klucel (hydroxypropylcellulose) (HPC).
Where [13] appears, read: dose: 200.0 mg/kg/injection, schedule: Q04DX003 (ip), vehicle: Klucel (hydroxypropylcellulose) (HPC).
Setting [14] is: dose: 50.0 mg/kg/injection, schedule: Q01DX009 (ip), vehicle: acetone.
Where [15] appears, read: dose: 100.0 mg/kg/injection, schedule: Q01DX009 (ip), vehicle: acetone.

For `[Br][Pt+2][Br].[NH-]C(CC([NH-])c1ccccc1)c1ccccc1` (stereo not drawn), the T/C was 101 % of control and 107 % of control and 112 % of control under setting [1]; 102 % of control and 89 % of control under setting [2]; 91 % of control under setting [3].
As for `COC(=O)c1ccc([N+](=O)[O-])cc1C(=O)OC`, the T/C under setting [4] was 100 % of control; the T/C under setting [5] is 108 % of control; the T/C (dose: 400.0 mg/kg/injection, schedule: Q04DX003 (ip), vehicle: saline with Tween-80) was 102 % of control.
`C[n+]1cccc2cccc(C(=O)O)c21`: the T/C (dose: 37.5 mg/kg/injection, schedule: Q01DX009 (ip), vehicle: saline with Tween-80) is 112 % of control; the T/C (dose: 75.0 mg/kg/injection, schedule: Q01DX009 (ip), vehicle: saline with Tween-80) is 109 % of control; the T/C (dose: 150.0 mg/kg/injection, schedule: Q01DX009 (ip), vehicle: saline with Tween-80) was 107 % of control.
`COc1cc(C(=O)C=C(C(F)(F)F)C(F)(F)F)cc(OC)c1OC`: the T/C was 101 % of control under setting [4] and 98 % of control under setting [5].
For the compound `Nc1nc(=O)n(C2OC(CO)C(O)C2O)c2sccc12` (stereo not drawn), the T/C was 94 % of control (dose: 25.0 mg/kg/injection, schedule: Q01DX005 (ip), vehicle: water); 94 % of control (dose: 50.0 mg/kg/injection, schedule: Q01DX005 (ip), vehicle: water); 89 % of control (dose: 100.0 mg/kg/injection, schedule: Q01DX005 (ip), vehicle: water); 89 % of control (dose: 200.0 mg/kg/injection, schedule: Q01DX005 (ip), vehicle: water).
For the compound `CCOC(=O)Nc1cc(=O)c([N+](=O)[O-])c(NC(=O)OCC)[nH]1`, the T/C runs as follows: (dose: 75.0 mg/kg/injection, schedule: Q04DX003 (ip), vehicle: saline) 92 % of control; (dose: 150.0 mg/kg/injection, schedule: Q04DX003 (ip), vehicle: saline) 97 % of control; (dose: 300.0 mg/kg/injection, schedule: Q04DX003 (ip), vehicle: saline) 101 % of control.
Take `O=C(O)C(=O)O.[NH-]CC1CCCC[N-]1.[Pt+2]` (stereo not drawn): the T/C was 164 % of control under setting [1], 201 % of control under setting [2] and 238 % of control under setting [3].
Turning to `CCOC(=O)NNC(=O)Nc1ccccc1F`, the T/C under setting [6] is 104 % of control, the T/C under setting [7] is 88 % of control and the T/C under setting [8] was 94 % of control.
Consider `CCCCCCCCCCCCCCCCCC[n+]1ccc(C(=O)c2ccccc2)cc1`, for which the T/C (dose: 9.38 mg/kg/injection, schedule: Q01DX001 (ip), vehicle: other) was 109 % of control and the T/C (dose: 18.75 mg/kg/injection, schedule: Q01DX001 (ip), vehicle: other) was 110 % of control.
`CCOc1ccc([N+](=O)[O-])cc1[N+](=O)[O-]`: the T/C runs as follows: under setting [2], 93 % of control; under setting [3], 98 % of control; under setting [4], 94 % of control.
On to `c1ccc(C2=C(c3ccccn3)N=c3ccccc3=c3ccccc3=N2)nc1`, for which the T/C runs as follows: under setting [9], 101 % of control; under setting [10], 111 % of control; under setting [11], 93 % of control.
In the case of `CCOC(=O)C(=CN1CCCCCC1)C(=O)OCC`, the T/C runs as follows: under setting [6], 94 % of control; under setting [7], 89 % of control; under setting [8], 94 % of control.
Turning to `O=C(N=C=S)c1ccccc1`, the T/C is 90 % of control (dose: 100.0 mg/kg/injection, schedule: Q04DX003 (ip), vehicle: other); 101 % of control (dose: 200.0 mg/kg/injection, schedule: Q04DX003 (ip), vehicle: other); 101 % of control (dose: 400.0 mg/kg/injection, schedule: Q04DX003 (ip), vehicle: other).
Turning to `COc1ccc(NC(=O)c2ccc(S(=O)(=O)F)cc2)cc1`, the T/C is 97 % of control under setting [9], 95 % of control under setting [10] and 94 % of control under setting [11].
With `CC(C)c1ccccc1NC1=NCCO1`, the T/C was 103 % of control under setting [12] and 90 % of control under setting [13].
For the compound `Cc1ccc(/C(C#N)=C2C=C(Br)/C(=N\O)C=C/2Cl)cc1`, the T/C is 96 % of control (dose: 25.0 mg/kg/injection, schedule: Q01DX009 (ip), vehicle: acetone); 98 % of control under setting [14]; 98 % of control under setting [15].
Consider `O=C(N/N=C/c1cccc(Cl)c1)c1ccccc1`, for which the T/C by setting is: under setting [6], 94 % of control; under setting [12], 96 % of control; under setting [7], 94 % of control; under setting [13], 94 % of control; under setting [8], 96 % of control; (dose: 400.0 mg/kg/injection, schedule: Q04DX003 (ip), vehicle: Klucel (hydroxypropylcellulose) (HPC)) 94 % of control.
Regarding `O=C(Sc1ccccc1)C(CO)c1ccccc1` (stereo not drawn), the T/C reads like this: (dose: 25.0 mg/kg/injection, schedule: Q04DX002 (ip), vehicle: saline with Tween-80) 101 % of control; (dose: 50.0 mg/kg/injection, schedule: Q04DX002 (ip), vehicle: saline with Tween-80) 101 % of control; (dose: 100.0 mg/kg/injection, schedule: Q04DX002 (ip), vehicle: saline with Tween-80) 97 % of control.
With `CS(=O)(=O)OCCN(CCOS(C)(=O)=O)c1cccc([N+](=O)[O-])c1`, the T/C reads like this: (dose: 8.0 mg/kg/injection, schedule: Q01DX001 (ip), vehicle: saline) 96 % of control; (dose: 10.0 mg/kg/injection, schedule: Q01DX010 (ip), vehicle: saline) 113 % of control; (dose: 16.0 mg/kg/injection, schedule: Q01DX001 (ip), vehicle: saline) 103 % of control; (dose: 32.0 mg/kg/injection, schedule: Q01DX001 (ip), vehicle: saline) 110 % of control; (dose: 64.0 mg/kg/injection, schedule: Q01DX001 (ip), vehicle: saline) 114 % of control and 108 % of control; (dose: 128.0 mg/kg/injection, schedule: Q01DX001 (ip), vehicle: saline) 118 % of control. Moreover, the T/C is, setting by setting: (dose: 256.0 mg/kg/injection, schedule: Q01DX001 (ip), vehicle: saline) 119 % of control; (dose: 300.0 mg/kg/injection, schedule: Q01DX010 (ip), vehicle: saline) 97 % of control.
For `O=[N+]([O-])c1ccc(Oc2nc(Cl)nc(Oc3ccc([N+](=O)[O-])cc3)n2)cc1`, the T/C was 93 % of control (dose: 25.0 mg/kg/injection, schedule: Q04DX003 (ip), vehicle: Klucel (hydroxypropylcellulose) (HPC)); 93 % of control (dose: 50.0 mg/kg/injection, schedule: Q04DX003 (ip), vehicle: Klucel (hydroxypropylcellulose) (HPC)); 86 % of control under setting [12].
Consider `Nc1nc2c(c(=O)[nH]1)N(Cc1c[nH]c(=O)[nH]c1=O)C(CNc1ccc(C(=O)NC(CCC(=O)O)C(=O)O)cc1)CN2` (stereo not drawn), for which the T/C is 101 % of control under setting [9], 92 % of control under setting [10] and 101 % of control under setting [11].
Regarding `CN(C)P1(=O)NCC(C(C)(C)C)CO1` (stereo not drawn), the T/C is 97 % of control (dose: 15.63 mg/kg/injection, schedule: Q01DX001 (ip), vehicle: water); 97 % of control (dose: 31.25 mg/kg/injection, schedule: Q01DX001 (ip), vehicle: water); 97 % of control (dose: 62.5 mg/kg/injection, schedule: Q01DX001 (ip), vehicle: water); 97 % of control (dose: 125.0 mg/kg/injection, schedule: Q01DX001 (ip), vehicle: water); 101 % of control (dose: 250.0 mg/kg/injection, schedule: Q01DX001 (ip), vehicle: water).
With `[CH3][Pb]([CH3])([CH3])[NH]C#N`, the T/C was 98 % of control (dose: 2.5 mg/kg/injection, schedule: Q01DX009 (ip), vehicle: saline) and 87 % of control (dose: 5.0 mg/kg/injection, schedule: Q01DX009 (ip), vehicle: saline).
With `CCc1ccc(NS(=O)(=O)c2ccccc2)cc1`, the T/C is 90 % of control under setting [6], 106 % of control under setting [7] and 95 % of control under setting [8].
The like results for `C=C(Br)CNC(=O)NCCN1CCOCC1` were, in that order, 97 % of control, 92 % of control and 89 % of control.
Turning to `Cc1ccc(S(=O)(=O)Nc2ccc(I)cc2F)cc1`, the T/C runs as follows: under setting [6], 101 % of control; under setting [7], 97 % of control; under setting [8], 97 % of control.
In the case of `S=C(NNC(=S)Nc1ccc(Cl)cc1)NNc1ccccc1`, the T/C under setting [14] is 95 % of control and the T/C under setting [15] is 97 % of control.
With `c1ccc2[s+]cccc2c1`, the T/C under setting [4] is 95 % of control.
